Experimental data as given in DBAASP.
In brackets after ≈: the same amount, converted by molar mass.

Experiments:
Test in all cases: ≥ marks a high value that may be exact or a test limit, other limits are often not marked, values filed in µg/mL are converted to µM
[1] = test system: Klebsiella pneumoniae ATCC 700603
[2] = test system: Pseudomonas aeruginosa ATCC 27853
[3] = test system: Bacillus subtilis ATCC 6633
[4] = test system: Staphylococcus aureus ATCC 25923
[5] = test system: Staphylococcus epidermidis ATCC 12228
[6] = test system: Escherichia coli ATCC 25922
[7] = test system: Candida albicans ATCC 90028
[8] = test system: Staphylococcus aureus ATCC 29213
[9] = test system: Salmonella typhimurium KCTC 1926
[10] = test system: Candida albicans
[11] = test system: Acinetobacter baumannii
[12] = test system: Pseudomonas aeruginosa ATCC 9027
[13] = test system: Enterococcus faecalis ATCC 29212
[14] = test system: Candida albicans ATCC 10231

Structure (SMILES) | MIC [2] [µM] | MIC [4] [µM] | MIC [6] [µM] | MIC [7] [µM] | MIC [8] [µM] | further results
CC(=O)N[C@@H](CCCCN)C(=O)N[C@@H](Cc1ccccc1)C(=O)N[C@@H](CC(C)C)C(=O)N[C@@H](CCCCN)C(=O)N[C@@H](CC(C)C)C(=O)N[C@@H](CCCCN)C(=O)N[C@@H](Cc1c[nH]c2ccccc12)C(=O)N[C@@H](CC(C)C)C(=O)N[C@@H](CCCCN)C(=O)N[C@@H](CO)C(=O)N[C@@H](Cc1c[nH]c2ccccc12)C(=O)N[C@@H](CCCCN)C(=O)N[C@@H](CC(N)=O)C(=O)N[C@@H](Cc1ccccc1)C(=O)N[C@@H](CCCCN)C(N)=O [KFLKLKWLKSWKNFK] | 12.5 (≈ 25.4 µg/mL) | 50 (≈ 102 µg/mL) | 12.5 (≈ 25.4 µg/mL) |  |  | MIC [1]: 25 µM (≈ 50.9 µg/mL); MIC [3]: 6.4 µM (≈ 13 µg/mL); MIC [5]: 12.5 µM (≈ 25.4 µg/mL)
CC[C@H](C)[C@H](NC(=O)[C@@H](NC(=O)[C@@H](NC(=O)[C@H](CCCN=C(N)N)NC(=O)[C@@H](NC(=O)[C@@H](NC(=O)[C@H](CC(C)C)NC(=O)[C@@H]1CCCN1C(=O)[C@H](Cc1c[nH]c2ccccc12)NC(=O)[C@@H](NC(=O)[C@H](CCCN=C(N)N)NC(=O)[C@@H](N)CCCCN)C(C)C)C(C)C)[C@@H](C)CC)[C@@H](C)O)C(C)C)C(=O)N[C@@H](C)C(=O)NCC(=O)N[C@@H](Cc1ccc(O)cc1)C(=O)N[C@@H](CC(N)=O)C(=O)N[C@@H](CC(C)C)C(=O)N[C@@H](Cc1ccc(O)cc1)C(=O)N[C@@H](CCCN=C(N)N)C(=O)O [KRVWPLVIRTVIAGYNLYR] |  |  |  |  |  | MIC [9]: ≥ 32 µM
CC(=O)N[C@@H](CCCCN)C(=O)N[C@@H](Cc1ccc(O)cc1)C(=O)N[C@H](C(=O)NCC(=O)N[C@@H](CCCCN)C(=O)N[C@@H](CS)C(=O)N[C@@H](CCCCN)C(=O)N[C@H](C(=O)N[C@@H](CCCCN)C(=O)N[C@@H](CCCCN)C(=O)N[C@@H](CC(N)=O)C(=O)N[C@@H](CCCCN)C(=O)N[C@@H](CS)C(=O)N[C@@H](CCCCN)C(N)=O)[C@@H](C)O)[C@@H](C)O [KYTGKCKTKKNKCK] |  |  |  |  |  | MIC [10]: 1.3 µM (≈ 2.21 µg/mL)
CC[C@H](C)[C@H](NC(=O)[C@H](CC(C)C)NC(=O)[C@H](CCCCN)NC(=O)[C@H](CCCN=C(N)N)NC(=O)[C@H](CC(N)=O)NC(=O)[C@H](CC(C)C)NC(=O)[C@H](CCCCN)NC(=O)[C@H](Cc1c[nH]c2ccccc12)NC(=O)[C@@H](NC(=O)[C@@H](NC(=O)[C@H](CO)NC(=O)[C@H](Cc1ccccc1)NC(=O)[C@@H](N)CC(C)C)[C@@H](C)CC)[C@@H](C)CC)C(=O)N[C@@H](CCCCN)C(=O)N[C@@H](C)C(=O)O [LFSIIWKLNRKLIKA] |  | > 64 | 64 (≈ 118 µg/mL) |  |  | MIC [11]: ≥ 64 µM; MIC [12]: > 64 µM; MIC [1]: > 64 µM
CC(C)C[C@H](NC(=O)[C@H](CC(C)C)NC(=O)[C@H](CCCN=C(N)N)NC(=O)[C@H](CCCCN)NC(=O)[C@H](CCCN=C(N)N)NC(=O)[C@H](CC(C)C)NC(=O)[C@H](CCCCN)NC(=O)[C@H](CCCN=C(N)N)NC(=O)[C@H](CC(C)C)NC(=O)[C@H](Cc1cnc[nH]1)NC(=O)[C@H](CO)NC(=O)[C@H](C)NC(=O)[C@H](CC(C)C)NC(=O)[C@H](CCCN=C(N)N)NC(=O)[C@@H](NC(=O)[C@H](CC(C)C)NC(=O)[C@H](CCCN=C(N)N)NC(=O)[C@H](CCCCN)NC(=O)[C@H](CCCN=C(N)N)NC(=O)[C@H](CC(C)C)NC(=O)[C@H](CCCCN)NC(=O)[C@H](CCCN=C(N)N)NC(=O)[C@@H](N)CC(C)C)C(C)C)C(=O)O [LRKLRKRLVRLASHLRKLRKRLL] | 2.74 (≈ 8 µg/mL) |  | 2.05 (≈ 6 µg/mL) |  | 5.47 (≈ 16 µg/mL) | MIC [13]: > 10.9 µM; MIC [11]: 2.05 µM (≈ 6 µg/mL)
C[C@H](NC(=O)[C@H](Cc1c[nH]c2ccccc12)NC(=O)[C@H](CCCCN)NC(=O)[C@H](Cc1ccccc1)NC(=O)[C@H](CCCN=C(N)N)NC(=O)[C@H](Cc1c[nH]c2ccccc12)NC(=O)[C@@H](N)CCCN=C(N)N)C(=O)N[C@@H](CCCCN)C(=O)N[C@@H](CCCCN)C(=O)O [RWRFKWAKK] |  | > 76.6 | > 76.6 |  |  | MIC [14]: > 76.6 µM; MIC [3]: ≥ 76.6 µM
CC(C)C[C@H](NC(=O)[C@H](CCCCN)NC(=O)[C@@H]1CCCN1C(=O)[C@H](CC(C)C)NC(=O)[C@H](CC(C)C)NC(=O)[C@@H]1CCCN1C(=O)[C@H](CCCCN)NC(=O)[C@H](CC(C)C)NC(=O)[C@H](CCCCN)NC(=O)[C@@H]1CCCN1C(=O)[C@H](CC(C)C)NC(=O)[C@H](CC(C)C)NC(=O)[C@H](CC(C)C)NC(=O)[C@H](CCCCN)NC(=O)[C@H](CC(C)C)NC(=O)[C@H](CC(C)C)NC(=O)[C@H](CCCCN)NC(=O)[C@@H](N)Cc1ccc(O)cc1)C(N)=O [YKLLKLLLPKLKPLLPKL] | 19.9 (≈ 42.4 µg/mL) |  |  |  | 23.3 (≈ 49.7 µg/mL) | MIC [14]: > 79.7 µM

The next lines start with results.

MIC [2] [µM] | MIC [4] [µM] | MIC [6] [µM] | MIC [7] [µM] | MIC [8] [µM] | Structure (SMILES) | further results
10 (≈ 15.4 µg/mL) |  | 5 (≈ 7.72 µg/mL) | 10 (≈ 15.4 µg/mL) | 5 (≈ 7.72 µg/mL) | CC[C@H](C)[C@H](NC(=O)[C@H](CCCN=C(N)N)NC(=O)[C@H](CCC(N)=O)NC(=O)[C@@H](NC(=O)[C@@H](NC(=O)[C@H](CCCCN)NC(=O)[C@@H](N)CCCCN)[C@@H](C)CC)C(C)C)C(=O)N[C@@H](CCCCN)C(=O)N[C@@H](CC(=O)O)C(=O)N[C@@H](Cc1ccccc1)C(=O)N[C@@H](CC(C)C)C(=O)N[C@@H](CCCN=C(N)N)C(=O)O [KKIVQRIKDFLR] | 
1.25 (≈ 1.84 µg/mL) |  | 1.25 (≈ 1.84 µg/mL) | 2.5 (≈ 3.68 µg/mL) | 2.5 (≈ 3.68 µg/mL) | CC[C@H](C)[C@H](NC(=O)[C@H](CCCN=C(N)N)NC(=O)[C@H](C)NC(=O)[C@@H](NC(=O)[C@@H](NC(=O)[C@H](CCCN=C(N)N)NC(=O)[C@@H](N)CCCCN)[C@@H](C)CC)C(C)C)C(=O)N[C@@H](CCCCN)C(=O)N[C@@H](C)C(=O)N[C@@H](Cc1ccccc1)C(=O)N[C@@H](CC(C)C)C(=O)N[C@@H](CCCN=C(N)N)C(=O)O [KRIVARIKAFLR] | 
10 (≈ 15.4 µg/mL) |  | 5 (≈ 7.72 µg/mL) | 20 (≈ 30.9 µg/mL) | 10 (≈ 15.4 µg/mL) | CC[C@H](C)[C@H](NC(=O)[C@H](CCCCN)NC(=O)[C@H](CCC(N)=O)NC(=O)[C@@H](NC(=O)[C@@H](NC(=O)[C@H](CCCN=C(N)N)NC(=O)[C@@H](N)CCCCN)[C@@H](C)CC)C(C)C)C(=O)N[C@@H](CCCCN)C(=O)N[C@@H](CC(=O)O)C(=O)N[C@@H](Cc1ccccc1)C(=O)N[C@@H](CC(C)C)C(=O)N[C@@H](CCCN=C(N)N)C(=O)O [KRIVQKIKDFLR] | 
40 (≈ 59.5 µg/mL) |  | 40 (≈ 59.5 µg/mL) | ≥ 40 | 40 (≈ 59.5 µg/mL) | CC[C@H](C)[C@H](NC(=O)[C@H](CCCN=C(N)N)NC(=O)[C@H](CCC(N)=O)NC(=O)[C@@H](NC(=O)[C@@H](NC(=O)[C@H](CCCN=C(N)N)NC(=O)[C@@H](N)CCCCN)[C@@H](C)CC)C(C)C)C(=O)N[C@@H](CCCCN)C(=O)N[C@@H](CC(=O)O)C(=O)N[C@@H](Cc1ccccc1)C(=O)N[C@@H](CC(C)C)C(=O)N[C@@H](C)C(=O)O [KRIVQRIKDFLA] | 
1.15 (≈ 2 µg/mL) | 4.6 (≈ 8 µg/mL) | 1.15 (≈ 2 µg/mL) |  |  | CC(C)C[C@H](NC(=O)[C@H](CCCN=C(N)N)NC(=O)[C@H](C)NC(=O)[C@@H](NC(=O)[C@H](CCCN=C(N)N)NC(=O)[C@H](CCCN=C(N)N)NC(=O)[C@H](CC(C)C)NC(=O)[C@@H](N)CC(C)C)C(C)C)C(=O)N[C@@H](CC(C)C)C(=O)N[C@@H](CCCCN)C(=O)N[C@@H](CCCN=C(N)N)C(=O)N[C@@H](Cc1ccccc1)C(=O)N[C@@H](C)C(=O)N[C@@H](CCCCN)C(=O)O [LLRRVARLLKRFAK] | MIC [3]: 4.6 µM (≈ 8 µg/mL)
